In patent publication US20230270749A1, “THERMO-SENSITIVE PERMEATION ENHANCING FORMULATIONS FOR DRUG DELIVERY” (Children's Medical Center Corporation, priority 2020, published 2023):

Tests used:
[1] = Solubility / dissolution in poloxamer-CPE formulations; format: physicochemical
S. pneumoniae = conditions: stated without test or source; cited from earlier work
[2] = format: in vivo, chinchilla; conditions: healthy / OM infected chinchillas
Experimental: Histopathology. Hydrogel formulations were administered onto the tympanic membrane of live healthy/OM chinchillas. After 7 days later, they were euthanized as described elsewhere. The TMs were then excised and immediately fixed in 10% neutral buffered formalin overnight. The sectioned TMs (˜10 μm thick) were stained with hematoxylin and eosin, and evaluated by light microscopy in a blinded fashion.

[3] = Systemic exposure: ciprofloxacin in plasma after gel application; format: in vivo, chinchilla; conditions: after hydrogel treatment
Experimental: The blood levels of Cip were investigated by collection of plasma samples at predetermined intervals from the transverse sinuses of chinchillas after hydrogel treatment.
NTHi OM chinchilla model and pharmacokinetics. All procedures and manipulations were performed using sedation analgesia under isoflurane chamber induction followed by mask inhalation of 1-3% isoflurane in accordance with approved IACUC protocols at Boston Children's Hospital. […] Isolates of NTHi grown to the mid-log phase were diluted in Hanks' balanced salt solution (HBSS), and about 25 to 75 CFU in […] were directly introduced into each middle ear through the dorsal aspect of the tympanic bullae under aseptic conditions. […] Serial plasma samples were also obtained through the […] during the experiment to determine systemic drug levels.

H. influenza = conditions: stated without test or source; cited from earlier work

CO/N=C(\C(=O)N[C@@H]1C(=O)N2C(C(=O)O)=C(CSc3nc(=O)c(=O)[nH]n3C)CS[C@H]12)c1csc(N)n1 [CTX, ceftriaxone sodium]
highest amount of CTX that can be dissolved in the P188-CPEs formulation while maintaining the desired rheological properties [1]: 42.6% | highest amount of CTX that can be dissolved in the P188-CPEs formulation as a powder form within a short time (<1 minute) ([1]; powder form, <1 minute): 28%

O=C(O)c1cn(C2CC2)c2cc(N3CCNCC3)c(F)cc2c1=O [ciprofloxacin]
minimum inhibitory concentration for middle ear infections (S. pneumoniae): about 4 μg/mL | appearance of H&E-stained TM sections after 7 days [2]: much thicker than healthy TM | ciprofloxacin in the bloodstream at any time point throughout the course of treatment [3]: no Ciprofloxacin was detectable | ciprofloxacin in the bloodstream at any time point throughout the course of treatment ([3]; listed as Cip): no Cip was detectable | minimum inhibitory concentration for middle ear infections (H. influenza): about 4 μg/mL
